Experiments:
[1] = Solubility in 2% Tween/0.5% MC aq.; format: physicochemical
[2] = target: T1, Progesterone Receptor (PR) (Homo sapiens, UniProt P06401); assay: Progesterone receptor (PR) antagonism, alkaline phosphatase assay in T47D cells; format: cell-based; conditions: percent inhibition @ 10 μM vs 1 nM progesterone
T1 sequence (P06401 679-933 limits assumed): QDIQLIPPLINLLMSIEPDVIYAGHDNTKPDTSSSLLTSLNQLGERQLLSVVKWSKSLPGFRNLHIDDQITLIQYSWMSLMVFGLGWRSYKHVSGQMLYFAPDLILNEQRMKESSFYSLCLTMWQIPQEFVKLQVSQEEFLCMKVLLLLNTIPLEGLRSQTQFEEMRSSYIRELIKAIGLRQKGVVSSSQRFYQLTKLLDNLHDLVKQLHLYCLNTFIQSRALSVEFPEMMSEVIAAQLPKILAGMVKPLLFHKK
Procedure: DMEM:F12 (1:1) (GIBCO, BRL) supplemented with 5% (v/v) charcoal stripped fetal bovine serum (not heat-inactivated), 100 U/ml penicillin, 100 jig/ml streptomycin, and 2 mM GlutaMax (GIBCO, BRL).
I. 0.1M Tris-HCl, pH 9.8, containing 0.2% Triton X-100 II. 0.1 M Tris-HCl, pH 9.8, containing 4 mM p-nitrophenyl phosphate (Sigma).
Frozen T47D cells were thawed in a 37° C. water bath and diluted to 280,000 cells/ml in culture medium. To each well in a 96-well plate (Falcon, Becton Dickinson Labware), 180 μl of diluted cell suspension was added. Twenty μl of reference or test compounds diluted in the culture medium were then added to each well. When testing for progestin antagonist activity, reference antiprogestins or test compounds were added in the presence of 1 nM progesterone. The cells were incubated at 37° C. in a 5% CO2/humidified atmosphere for 24 hours.
At the end of treatment, the medium was removed from the plate. Fifty μl of assay buffer I was added to each well. The plates were shaken in a titer plate shaker for […]. Then 150 μl of assay buffer II was added to each well. Optical density measurements were taken at 5 min intervals for 30 min at a test wavelength of 405 nm.

LDLR KO Mouse Model = assay: Mouse serum triglyceride (TG) and cholesterol levels in LDLR -/- mice; format: in vivo; conditions: daily oral gavage 7 days
Procedure: Eight-week old LDLR −/−mice were purchased from Jackson Laboratories and maintained on a chow diet. Some LDLR −/−mice were fed a western diet (AlN-76A; Purina Test Diets) as indicated. All mice were treated by daily oral gavage with vehicle or varying concentrations of compound for 7 days. On the last day after the final dose, the food was removed to allow a 3 hr fast and serum was harvested for analysis. Serum TG and cholesterol levels were determined using a Roche 912 clinical chemistry analyzer and expressed as mg/dL.

Caco2 = Caco2 permeability; format: in vitro ADME
PAMPA permeability = format: in vitro ADME
CYP450 3A4 = CYP450 3A4 (Homo sapiens, UniProt P08684); assay: CYP450 3A4 inhibition; format: in vitro ADME
HLM stability = format: in vitro ADME; conditions: human, liver microsomes; read-out: HLM (t1/2)
CYP450 2D6 = CYP450 2D6 (Homo sapiens, UniProt P10635); assay: CYP450 2D6 inhibition; format: in vitro ADME
[3] = Pharmacokinetics (bioavailability, half life); format: in vivo
CYP450 2C9 = CYP450 2C9 (Homo sapiens, UniProt P11712); assay: CYP450 2C9 inhibition; format: in vitro ADME
Gal4/hFXR fusion protein = target: T2, Gal4/hFXR fusion protein (Homo sapiens, UniProt Q96RI1); assay: Gal4/hFXR fusion protein agonist activity in human 293 cells (luciferase); format: cell-based; design: rows headed: hFXR agonist EC50; hFXR agonist eff. @ 30 μM; other: efficacy @ 30 μM; conditions: efficacy @ 30 μM
T2 sequence (Q96RI1 262-486 limits assumed): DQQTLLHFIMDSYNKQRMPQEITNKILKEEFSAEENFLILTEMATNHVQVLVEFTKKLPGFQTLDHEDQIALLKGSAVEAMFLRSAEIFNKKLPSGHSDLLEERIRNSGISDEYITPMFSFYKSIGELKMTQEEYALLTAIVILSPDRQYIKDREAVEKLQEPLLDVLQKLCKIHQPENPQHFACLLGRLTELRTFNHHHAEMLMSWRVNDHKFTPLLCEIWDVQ
Procedure: • Assay Medium: Phenol red free high glucose Dulbecco's modified Eagle's medium with sodium pyruvate (Cellgro, #17-205-CV) supplemented with 10% fetal bovine serum (Gibco, 16000-044), 1% glutamax (Gibco, 35050-061), 100 units/mL penicillin and 100 μg/mL streptomycin (Gibco, 15140-122). • Culturplate-96 (PerkinElmer, 6005688) • Lysis buffer (Promega, E3971) • Luciferase assay reagent (Promega E1483)
• 1. Compounds to be tested were prepared as 2× stocks in assay medium. • 2. […] The supernatant was removed and the cells were resuspended in 1 ml assay medium. The cells were counted and diluted in assay medium to 200,000 cells per ml. The cells were then plated at 10,000 cells per well in Culturplate-96 plates in 50 uL assay medium. The cells were incubated at 37° C. for approximately 1 hour. • 3. […] All assays included 1 uM GW4064 (Maloney et al., J. Med. Chem., 2000, 43(16), 2971-2974) as a reference standard. • 4. Cells were incubated for 24 hours at 37° C.
• 5. […] The plates were analyzed for luciferase activity with luciferase assay reagent (Promega E1483). Plates were read on Victor^3V instrument using the protocol “Shuguang Luciferase assay” (dispense volume=100 uL, plate type=“Packard Viewplate”, measurement height=8 mm from bottom of plate, 5 second read per well).
• 1. For agonist single point screening, data were analyzed in Excel. […]

hERG = hERG (Homo sapiens, UniProt Q12809); assay: hERG function; conditions: values printed as concentrations; read-out: hERG function (% Inh. @ 10 μM)
hERG, sequence (Q12809 whole entry): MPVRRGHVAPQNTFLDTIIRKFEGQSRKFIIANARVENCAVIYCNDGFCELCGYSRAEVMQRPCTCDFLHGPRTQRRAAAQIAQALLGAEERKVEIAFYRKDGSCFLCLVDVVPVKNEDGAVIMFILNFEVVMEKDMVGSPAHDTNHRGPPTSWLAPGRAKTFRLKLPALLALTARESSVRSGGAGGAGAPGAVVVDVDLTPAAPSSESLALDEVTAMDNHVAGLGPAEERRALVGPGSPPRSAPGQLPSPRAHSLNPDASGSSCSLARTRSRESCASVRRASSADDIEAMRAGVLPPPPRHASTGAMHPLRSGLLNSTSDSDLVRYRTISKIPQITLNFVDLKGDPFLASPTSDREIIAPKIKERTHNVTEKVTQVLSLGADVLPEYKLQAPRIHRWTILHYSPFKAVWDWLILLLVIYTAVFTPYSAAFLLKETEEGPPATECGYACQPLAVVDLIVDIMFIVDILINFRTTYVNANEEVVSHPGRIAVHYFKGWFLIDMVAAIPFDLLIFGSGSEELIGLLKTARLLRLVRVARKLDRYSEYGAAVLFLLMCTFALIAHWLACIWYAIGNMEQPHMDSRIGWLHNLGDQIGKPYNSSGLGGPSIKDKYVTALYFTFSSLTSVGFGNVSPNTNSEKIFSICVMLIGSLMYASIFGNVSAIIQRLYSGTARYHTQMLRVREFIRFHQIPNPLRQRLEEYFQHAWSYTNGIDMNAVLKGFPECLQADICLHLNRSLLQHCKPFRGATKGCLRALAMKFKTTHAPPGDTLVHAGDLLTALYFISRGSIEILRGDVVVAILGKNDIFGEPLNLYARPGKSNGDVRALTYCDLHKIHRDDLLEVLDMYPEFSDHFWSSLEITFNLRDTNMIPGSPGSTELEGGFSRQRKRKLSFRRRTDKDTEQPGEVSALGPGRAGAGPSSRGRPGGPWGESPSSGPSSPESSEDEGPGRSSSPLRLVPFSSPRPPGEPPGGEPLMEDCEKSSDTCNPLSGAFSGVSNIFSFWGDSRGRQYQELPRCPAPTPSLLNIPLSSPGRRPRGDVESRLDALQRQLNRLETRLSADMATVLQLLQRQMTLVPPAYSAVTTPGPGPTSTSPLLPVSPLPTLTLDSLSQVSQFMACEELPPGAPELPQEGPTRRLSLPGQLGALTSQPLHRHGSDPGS

CYP450 2D6, sequence (P10635 whole entry): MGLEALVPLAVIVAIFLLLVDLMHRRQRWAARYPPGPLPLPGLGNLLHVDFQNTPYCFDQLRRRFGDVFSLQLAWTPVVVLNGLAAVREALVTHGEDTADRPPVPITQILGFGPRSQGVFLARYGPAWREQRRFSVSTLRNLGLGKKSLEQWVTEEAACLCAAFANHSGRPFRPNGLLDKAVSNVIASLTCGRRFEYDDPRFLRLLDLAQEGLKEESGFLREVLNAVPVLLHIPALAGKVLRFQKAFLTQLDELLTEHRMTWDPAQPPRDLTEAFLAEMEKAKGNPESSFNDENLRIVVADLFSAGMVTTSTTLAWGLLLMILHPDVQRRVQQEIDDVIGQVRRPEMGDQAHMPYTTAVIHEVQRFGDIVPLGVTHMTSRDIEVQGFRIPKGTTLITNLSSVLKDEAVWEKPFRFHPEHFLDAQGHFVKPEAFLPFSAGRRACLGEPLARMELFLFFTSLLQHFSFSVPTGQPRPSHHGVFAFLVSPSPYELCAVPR
CYP450 2C9, sequence (P11712 whole entry, the tested form may be a part): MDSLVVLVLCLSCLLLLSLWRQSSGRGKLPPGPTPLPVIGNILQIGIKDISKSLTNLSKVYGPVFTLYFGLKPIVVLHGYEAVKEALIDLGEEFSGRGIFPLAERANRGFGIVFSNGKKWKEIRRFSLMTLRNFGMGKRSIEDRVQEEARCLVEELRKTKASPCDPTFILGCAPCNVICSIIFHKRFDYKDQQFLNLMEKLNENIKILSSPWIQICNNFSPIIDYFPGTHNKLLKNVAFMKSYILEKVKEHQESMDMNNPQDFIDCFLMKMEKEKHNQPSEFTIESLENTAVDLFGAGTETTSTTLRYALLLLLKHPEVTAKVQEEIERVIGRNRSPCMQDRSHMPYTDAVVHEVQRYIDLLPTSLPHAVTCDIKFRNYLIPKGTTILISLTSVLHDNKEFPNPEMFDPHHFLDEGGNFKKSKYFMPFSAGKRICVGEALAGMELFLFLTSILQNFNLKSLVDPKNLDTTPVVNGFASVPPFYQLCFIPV
CYP450 3A4, sequence (P08684 whole entry): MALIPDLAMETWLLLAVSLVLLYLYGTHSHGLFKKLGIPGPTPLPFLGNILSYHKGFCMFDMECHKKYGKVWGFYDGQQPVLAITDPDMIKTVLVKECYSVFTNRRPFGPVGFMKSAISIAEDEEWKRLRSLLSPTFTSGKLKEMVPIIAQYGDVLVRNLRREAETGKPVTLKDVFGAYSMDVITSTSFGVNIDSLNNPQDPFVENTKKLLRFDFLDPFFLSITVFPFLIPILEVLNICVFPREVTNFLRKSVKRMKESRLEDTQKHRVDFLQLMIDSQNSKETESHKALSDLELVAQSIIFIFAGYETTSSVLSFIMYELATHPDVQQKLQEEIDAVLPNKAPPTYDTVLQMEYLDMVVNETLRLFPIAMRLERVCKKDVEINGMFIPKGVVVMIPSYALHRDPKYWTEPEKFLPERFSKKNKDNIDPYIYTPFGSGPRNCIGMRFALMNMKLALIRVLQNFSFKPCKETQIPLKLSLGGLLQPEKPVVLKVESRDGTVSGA

2% Tween/0.5% MC aq. sol. (mg/mL) [1] [mg/mL] | 2% Tween/0.5% MC aq. sol. (μM) [1] [µM] | PR Antagonism (Alk. Phos. Assay @ 10 μM) [2] | Transport mechanism (Caco2) | Caco2 Permeability (Pe × 10^−6) A-B (Caco2) | Caco2 Permeability (Pe × 10^−6) B-A (Caco2) | PAMPA Permeability (Pe × 10^−6) (PAMPA permeability) | CYP450 3A4 % I @ 3 μM (CYP450 3A4) [%] | half-life (HLM stability) [min] | CYP450 2D6 % I @ 3 μM (CYP450 2D6) [%] | Bioavailability (dosed in aqueous MC/Tween) [3] | CYP450 2C9 % I @ 3 μM (CYP450 2C9) [%] | hFXR agonist eff. @ 30 μM (Gal4/hFXR fusion protein) [%] | Caco2 Permeability, class (Caco2; class in words) | Structure (SMILES) | Reduction of Total Cholesterol in a LDLR KO Mouse Model (Female) @ 10 mpk (LDLR KO Mouse Model) [%] | Reduction of Triglycerides in a LDLR KO Mouse Model (Female) @ 10 mpk (LDLR KO Mouse Model) [%] | Reduction of Total Cholesterol in a LDLR KO Mouse Model (Male) @ 10 mpk (LDLR KO Mouse Model) [%] | Reduction of Triglycerides in a LDLR KO Mouse Model (Male) @ 10 mpk (LDLR KO Mouse Model) [%] | IC50 (hERG) [µM]
0.20 | 355.0 | 95% | passive | 0.8 × 10^−6 | 0.8 × 10^−6 | 0.66 × 10^−6 | – | – | – | – | – | – | – | CC(C)OC(=O)C1=CN(C(=O)c2ccc(OCCCN3CCOCC3)cc2)CC(C)(C)c2c1[nH]c1cc(F)ccc21 [Example 30, Isopropyl 8-fluoro-1,1-dimethyl-3-[4-(3-morpholin-4-ylpropoxy)benzoyl]-1,2,3,6-tetrahydroazepino[4,5-b]indole-5-carboxylate] | 60 | 65 | 74 | 78 | –
0.19 | 332.0 | 90% | passive | – | – | 0 × 10^−6 | – | – | – | – | – | – | – | CC(C)OC(=O)C1=CN(C(=O)c2ccc(OCCCN3CCOCC3)cc2)CC(C)(C)c2c1[nH]c1ccccc21 [Reference Compound 1, 1-methylethyl-1,1-dimethyl-3-({4-[(3-morpholin-4-ylpropyl)oxy]phenyl}carbonyl)-1,2,3,6-tetrahydroazepino[4,5-b]indole-5-carboxylate] | 40 | 25 | 49 | 59 | –
0.01 | 22.0 | 44% @ 10 μM | passive | 0.5 × 10^−6 | 0.5 × 10^−6 | 0 × 10^−6 | 43 | 18 | 5 | poor | 24 | 179 | Low | CC(C)OC(=O)C1=CN(C(=O)c2ccc(F)c(F)c2)CC(C)(C)c2c1[nH]c1ccccc21 [Reference Compound 2, isopropyl-3-(3,4-difluorobenzoyl)-1,1-dimethyl-1,2,3,6-tetrahydroazepino[4,5-b]indole-5-carboxylate] | 36 | 39 | 47 | 71 | > 10

Reference: patent US20110039824A1, “1,2,3,6-tetrahydroazepino[4,5-b]indole-5-carboxylate nuclear receptor inhibitors” (Wyeth, priority 2008, published 2011)
